Reference: patent publication US20080039483A1, “Novel Chelidonine Derivatives, Methods for the Production Thereof, and Use Thereof For Producing Pharmaceutical Agents” (priority 2003, published 2008)
Values after ≈ are worked out from the molar mass of the structure shown.

Tests used:
Panc1 (pancreas) = test: MTT cytotoxicity test, Panc1; format: cell-based
T47D (breast) = test: MTT cytotoxicity test, T47D; format: cell-based
[1] = test system: T47D, Colo205, Panc1, BxPC3, U373MG, SK-0V3; test: MTT cytotoxicity test, activity compared to native chelidonine across the cell lines; format: cell-based; details: for activity compared to native chelidonine: overall, times higher than native chelidonine; for activity compared to native chelidonine, range: range of times higher than native chelidonine
U373MG (astrocyte) = test: MTT cytotoxicity test, U373MG; format: cell-based
Colo205 (colon) = test: MTT cytotoxicity test, Colo205; format: cell-based
BxPC3 (pancreas) = test: MTT cytotoxicity test, BxPC3; format: cell-based

Compound | IC50, MTT cytotoxicity test (Panc1 (pancreas)) | IC50, MTT cytotoxicity test (T47D (breast)) | activity compared to native chelidonine [1] | activity compared to native chelidonine, range [1] | IC50, MTT cytotoxicity test (U373MG (astrocyte)) | IC50, MTT cytotoxicity test (Colo205 (colon)) | IC50, MTT cytotoxicity test (BxPC3 (pancreas)) | IC50, MTT cytotoxicity test (SK-0V3 (ovarian)) | IC50 (Panc1 (pancreas); Homo sapiens, PANC-1) | IC50 (T47D (breast); Homo sapiens) | IC50 (U373MG (astrocyte); Homo sapiens, U373 MG) | IC50 (Colo205 (colon); Homo sapiens, COLO 205) | IC50 (BxPC3 (pancreas); Homo sapiens, BXPC-3)
Chelidoninyl Trifluoroacetate [Chelidonine trifluoroacetate] | 0.06 µg/mL | 0.02 µg/mL | 5 times | 4-10 times | >4 µg/mL | 0.045 µg/mL | 0.03 µg/mL | 0.06 µg/mL |  |  |  |  | 
CN1Cc2c(ccc3c2OCO3)[C@@H]2[C@H]1c1cc3c(cc1C[C@@H]2O)OCO3 [Chelidonine] |  |  |  |  |  |  |  |  | 0.25 µg/mL (≈ 0.707 µM) | 0.2 µg/mL (≈ 0.566 µM) | > 8 µg/mL | 0.37 µg/mL (≈ 1.05 µM) | > 8 µg/mL
COC(=O)CCC(=O)O[C@H]1Cc2cc3c(cc2[C@@H]2[C@H]1c1ccc4c(c1CN2C)OCO4)OCO3 [Chelidoninyl methyl succinate, Succinic Acid Chelidoninyl Methyl ester] | 0.005 µg/mL | 0.02 µg/mL | approximately 30 times | 50-150 times | 4 µg/mL | 0.0035 µg/mL | <0.0035 µg/mL | 0.0035 µg/mL |  |  |  |  | 
CN1Cc2c(ccc3c2OCO3)C2C(OC(=O)OC(Cl)(Cl)Cl)Cc3cc4c(cc3C21)OCO4 (centres unmarked) [Chelidoninyl trichloromethyl carbonate, Chelidoninyl Trichloromethyl Carbonate] | 0.25 µg/mL (≈ 0.486 µM) | 0.2 µg/mL (≈ 0.389 µM) |  |  | >8 µg/mL | 0.5 µg/mL (≈ 0.971 µM) | >8 µg/mL |  |  |  |  |  | 
